{
  "source": "patent US6645911B2",
  "about": "“Synergistic herbicidal mixtures” (BASF Aktiengesellschaft, priority 2000, dated 2003)",
  "type_in_all_cases": "in vivo",
  "key": {"Stellaria media [1]": {"system": "Stellaria media", "test": "Postemergence herbicidal greenhouse evaluation, Test Serie A (Table II, picolinafen/carfentrazone-ethyl)", "conditions": "21 days after treatment", "procedure": "(§1) In the following examples, synergism for two-way combinations is determined by the Colby^1 method, i.e. the expected (or predicted) response of the combination is calculated by taking the product of the observed response for each individual component of the combination when applied alone divided by 100 and subtracting this value from the sum of the observed response for each component when applied alone. Synergism of the combination is then determined by comparing the observed response of the combination to the expected (or predicted) response as calculated from the observed responses of each individual component alone. If the observed response of the combination is greater than the expected (or predicted) response then the combination is said to be synergistic and falls within the definition of synergistic effect as previously defined.\n(§2) Postemergence Herbicidal Greenhouse Evaluations\n(§3) Plant seeds are sown in pots containing a loamy sand soil (0.5 l). The herbicides are applied as single treatments, or in a combination comprising a compound of formula I and a second compound as defined above, after emergence of weeds and crop. The herbicidal performance is assessed as percent damage in comparison to the untreated control plants. The assessment is done 21 days after the treatment. Wheat and barley are treated at the 3-4 leaf stage, the broad-leaf weeds at the 2-4 leaf stage and annual grasses at the 2-3 leaf stage. [formula]\n(§4) For the compound of formula I picolinafen is employed.\n(§5) The damage caused by the chemicals was assessed with reference to a scale from 0 to 100% in comparison with the untreated control plants. 0 means no damage and 100 means compete destruction of the plants."}, "Veronica persicaria": {"system": "Veronica persicaria", "test": "Postemergence herbicidal evaluation, Test Serie B, in spring wheat (Table III)", "conditions": "weed growth stage 14, test period 14 days", "procedure": "as §1, §5\n(§6) For the post-emergence treatment, the test plants were first grown to a height of 3 to 20 cm, depending on the growth habit, and only then treated. The herbicides were suspended or emulsified in water as the vehicle and sprayed with the aid of finely distributing nozzles.\n(§7) Cinidon-ethyl was formulated as a 20% by weight emulsion concentrate and employed in the spray mixture with addition of that amount of solvent system with which the active ingredient had been applied at the application rates shown in the tables.\n(§8) Picolinofen was formulated as a 10% by weight emulsion concentrate and empolyed in the spray mixture with addition of that amount of solvent system with which the active ingredient had been applied at the rates shown in the tables.\n(§9) The test period extended over 14 days. During this time, the plants were attended, and their responses to the treatments with active ingredients were recorded (Tables III and IV)."}, "Anthimis mixta": {"system": "Anthimis mixta", "test": "Postemergence herbicidal evaluation, Test Serie B, in spring wheat (Table III)", "conditions": "weed growth stage 14, test period 14 days", "procedure": "as §1, §5, §6, §7, §8, §9"}, "Stellaria media [2]": {"system": "Stellaria media", "test": "Postemergence herbicidal evaluation, Test Serie B, in spring barley (Table IV)", "conditions": "weed growth stage 22, test period 14 days", "procedure": "as §1, §5\nFor the post-emergence treatment, the test plants were first grown to a height of 3 to 20 cm, depending on the growth habit, and only then treated. […]\nas §9"}, "Galium aparine": {"system": "Galium aparine", "test": "Postemergence herbicidal greenhouse evaluation, Test Serie A (Table I)", "conditions": "21 days after treatment", "procedure": "as §1, §2, §3, §4, §5"}, "Stellaria media [3]": {"system": "Stellaria media", "test": "Postemergence herbicidal greenhouse evaluation, Test Serie A (Table I)", "conditions": "21 days after treatment", "procedure": "as §1, §2, §3, §4, §5"}, "Papaver rhoeas": {"system": "Papaver rhoeas", "test": "Postemergence herbicidal greenhouse evaluation, Test Serie A (Table I)", "conditions": "21 days after treatment", "procedure": "as §1, §2, §3, §4, §5"}, "Lamium purpurium": {"system": "Lamium purpurium", "test": "Postemergence herbicidal greenhouse evaluation, Test Serie A (Table I)", "conditions": "21 days after treatment", "procedure": "as §1, §2, §3, §4, §5"}, "Alopecuris myosuroides": {"system": "Alopecuris myosuroides", "test": "Postemergence herbicidal greenhouse evaluation, Test Serie A (Table I)", "conditions": "21 days after treatment", "procedure": "as §1, §2, §3, §4, §5"}, "[4]": {"conditions": "Picolinafen 0 g/ha, Flufenacet 15 g/ha"}, "[5]": {"conditions": "Picolinafen 0 g/ha, Flufenacet 30 g/ha"}, "[6]": {"conditions": "Picolinafen 0 g/ha, Flufenacet 120 g/ha"}, "[7]": {"conditions": "Picolinafen 15 g/ha, Flufenacet 0 g/ha"}, "[8]": {"conditions": "Picolinafen 30 g/ha, Flufenacet 0 g/ha"}, "[9]": {"conditions": "Picolinafen 60 g/ha, Flufenacet 0 g/ha"}},
  "data": [
    {"smiles": "CCOC(=O)C(Cl)Cc1cc(-n2nc(C)n(C(F)F)c2=O)c(F)cc1Cl", "note": "(racemic) [Carfentrazone-ethyl, ethyl (RS)-2-chloro-3-[2-chloro-5-(4-difluoromethyl-4,5-dihydro-3-methyl-5-oxo-1H-1,2,4-triazol-1-yl)-4-fluorophenyl]propionate]", "values": [
      {"measurement": "% Control OBS", "setting": "Stellaria media [1]; Picolinafen 0 g/ha, Carfentrazone-ethyl 3.75 g/ha", "result": 0, "unit": "%"},
      {"measurement": "% Control OBS", "setting": "Stellaria media [1]; Picolinafen 0 g/ha, Carfentrazone-ethyl 7.50 g/ha", "result": 0, "unit": "%"},
      {"measurement": "% Control OBS", "setting": "Stellaria media [1]; Picolinafen 0 g/ha, Carfentrazone-ethyl 15 g/ha", "result": 0, "unit": "%"},
      {"measurement": "% Control OBS", "setting": "Stellaria media [1]; Picolinafen 0 g/ha, Carfentrazone-ethyl 30 g/ha", "result": 0, "unit": "%"}
    ]},
    {"smiles": "CCOC(=O)/C(Cl)=C/c1cc(N2C(=O)C3=C(CCCC3)C2=O)ccc1Cl", "note": "[Cinidon-ethyl, ethyl (Z)-2-chloro-3-[2-chloro-5-(1,3-dioxo-4,5,6,7-tetrahydroisoindol-2-yl)-phenyl]acrylate]", "values": [
      {"measurement": "% Control OBS", "setting": "Veronica persicaria; Cinidon-ethyl 50 g/ha alone", "result": 50, "unit": "%"},
      {"measurement": "% Control OBS", "setting": "Anthimis mixta; Cinidon-ethyl 50 g/ha alone", "result": 52, "unit": "%"},
      {"measurement": "% Control OBS", "setting": "Stellaria media [2]; Cinidon-ethyl 50 g/ha alone", "result": 23, "unit": "%"}
    ]},
    {"smiles": "CC(C)N(C(=O)COc1nnc(C(F)(F)F)s1)c1ccc(F)cc1", "note": "[Flufenacet]", "values": [
      {"measurement": "% Control OBS", "setting": "Galium aparine; [4]", "result": 40, "unit": "%"},
      {"measurement": "% Control OBS", "setting": "Galium aparine; [5]", "result": 55, "unit": "%"},
      {"measurement": "% Control OBS", "setting": "Stellaria media [3]; [5]", "result": 0, "unit": "%"},
      {"measurement": "% Control OBS", "setting": "Stellaria media [3]; Picolinafen 0 g/ha, Flufenacet 60 g/ha", "result": 0, "unit": "%"},
      {"measurement": "% Control OBS", "setting": "Stellaria media [3]; [6]", "result": 0, "unit": "%"},
      {"measurement": "% Control OBS", "setting": "Papaver rhoeas; [4]", "result": 0, "unit": "%"},
      {"measurement": "% Control OBS", "setting": "Papaver rhoeas; [5]", "result": 0, "unit": "%"},
      {"measurement": "% Control OBS", "setting": "Papaver rhoeas; [6]", "result": 18, "unit": "%"},
      {"measurement": "% Control OBS", "setting": "Lamium purpurium; [6]", "result": 18, "unit": "%"},
      {"measurement": "% Control OBS", "setting": "Alopecuris myosuroides; [4]", "result": 75, "unit": "%"}
    ]},
    {"smiles": "O=C(Nc1ccc(F)cc1)c1cccc(Oc2cccc(C(F)(F)F)c2)n1", "note": "[Picolinafen, N-(4-fluorophenyl)-6-(-3-trifluoromethylphenoxy)-pyrid-2-ylcarboxamide]", "values": [
      {"measurement": "% Control OBS", "setting": "Galium aparine; [7]", "result": 78, "unit": "%"},
      {"measurement": "% Control OBS", "setting": "Stellaria media [3]; [7]", "result": 53, "unit": "%"},
      {"measurement": "% Control OBS", "setting": "Stellaria media [3]; [8]", "result": 73, "unit": "%"},
      {"measurement": "% Control OBS", "setting": "Papaver rhoeas; [8]", "result": 15, "unit": "%"},
      {"measurement": "% Control OBS", "setting": "Papaver rhoeas; [9]", "result": 35, "unit": "%"},
      {"measurement": "% Control OBS", "setting": "Lamium purpurium; [8]", "result": 15, "unit": "%"},
      {"measurement": "% Control OBS", "setting": "Alopecuris myosuroides; [8]", "result": 20, "unit": "%"},
      {"measurement": "% Control OBS", "setting": "Alopecuris myosuroides; [9]", "result": 43, "unit": "%"},
      {"measurement": "% Control OBS", "setting": "Alopecuris myosuroides; Picolinafen 120 g/ha, Flufenacet 0 g/ha", "result": 60, "unit": "%"},
      {"measurement": "% Control OBS", "setting": "Stellaria media [1]; Picolinafen 30 g/ha, Carfentrazone-ethyl 0 g/ha", "result": 37, "unit": "%"},
      {"measurement": "% Control OBS", "setting": "Stellaria media [1]; Picolinafen 60 g/ha, Carfentrazone-ethyl 0 g/ha", "result": 45, "unit": "%"},
      {"measurement": "% Control OBS", "setting": "Stellaria media [1]; Picolinafen 120 g/ha, Carfentrazone-ethyl 0 g/ha", "result": 72, "unit": "%"},
      {"measurement": "% Control OBS", "setting": "Veronica persicaria; Picolinafen 50 g/ha alone", "result": 10, "unit": "%"},
      {"measurement": "% Control OBS", "setting": "Anthimis mixta; Picolinafen 50 g/ha alone", "result": 10, "unit": "%"},
      {"measurement": "% Control OBS", "setting": "Stellaria media [2]; Picolinafen 50 g/ha alone", "result": 10, "unit": "%"}
    ]}
  ]
}
